Reference: ChEMBL document CHEMBL1135383, “Increase of the adenallene anti-HIV activity in cell culture using its bis(tBuSATE) phosphotriester derivative” (Bioorg Med Chem Lett, 2002)

Tests used:
CEM-SS [1] = experiment: Effective concentration required to inhibit the replication of HIV-1 in CEMSS human T4 lymphoblastoid cell lines; format: functional, cell-based
CEM-SS [2] = experiment: Cytotoxic concentration required to inhibit the replication of HIV-1 in CEM-SS human T4 lymphoblastoid cell lines; format: functional
MT2 [3] = experiment: Effective concentration required to inhibit the replication of HIV-1 in MT-2 human T4 lymphoblastoid cell lines; format: functional, cell-based
MT2 [4] = experiment: Cytotoxic concentration required to inhibit the replication of HIV-1 in MT-2 human T4 lymphoblastoid cell lines; format: functional
MT4 [5] = experiment: Cytotoxic concentration required to inhibit the replication of HIV-1 in MT-4 human T4 lymphoblastoid cell lines; format: functional
MT4 [6] = experiment: Effective concentration required to inhibit the replication of HIV-1 in MT-4 human T4 lymphoblastoid cell lines; format: functional, cell-based

Row | Structure (SMILES) | EC50 (CEM-SS [1]) | CC50 (CEM-SS [2]) | EC50 (MT2 [3]) | CC50 (MT2 [4]) | CC50 (MT4 [5]) | EC50 (MT4 [6])
1 | CC(C)(C)C(=O)SCCOP(=O)(OCC=C=Cn1cnc2c(N)ncnc21)OCCSC(=O)C(C)(C)C | 1.2 µM | > 10 µM | 6.4 µM | 28 µM | > 10 µM | 8.9 µM
2 | Nc1ncnc2c1ncn2C=C=CCO (racemic) | 56 µM | > 100 µM | > 100 µM | > 100 µM | > 100 µM | > 100 µM
